Assays:
DIRAS2 = target: T1, DIRAS2 (Homo sapiens, UniProt Q96HU8); assay: IP-RP-HPLC of nucleotide co-purified with Flag protein from HeLa; format: cell-based; conditions: nucleotide loaded in cells; 5 mM then 1 mM MgCl2 washes
T1 construct: Flag-tagged, dox-inducible in HeLa, anti-Flag immunopurified
T1 sequence (Q96HU8 1-196): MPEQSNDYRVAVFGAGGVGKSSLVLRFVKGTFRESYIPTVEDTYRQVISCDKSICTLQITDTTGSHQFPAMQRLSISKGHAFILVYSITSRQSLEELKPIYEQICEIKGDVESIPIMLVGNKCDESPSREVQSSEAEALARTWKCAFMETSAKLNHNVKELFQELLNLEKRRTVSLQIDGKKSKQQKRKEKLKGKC

DIRAS1 = target: T2, DIRAS1 (Homo sapiens, UniProt O95057); assay: as above; format: cell-based; conditions: nucleotide loaded in cells; 5 mM then 1 mM MgCl2 washes
T2 construct: Flag-tagged, dox-inducible in HeLa, anti-Flag immunopurified
T2 sequence (O95057 1-195): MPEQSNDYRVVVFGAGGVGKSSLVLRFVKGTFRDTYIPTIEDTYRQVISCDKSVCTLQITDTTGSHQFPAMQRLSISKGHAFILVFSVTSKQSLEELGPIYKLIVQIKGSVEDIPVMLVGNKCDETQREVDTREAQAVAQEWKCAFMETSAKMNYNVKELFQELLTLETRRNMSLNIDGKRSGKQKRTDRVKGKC

GST-RHEB [1] = target: T3, GST-RHEB (Homo sapiens, UniProt Q15382); assay: [3H]GDP-dissociation assay, filter binding; conditions: labelled compound; 5 μM [3H]GDP preload with 10 mM EDTA, chase 200 μM GTPγS; 5 mM MgCl2, pH 7.5, 30 °C
T3 construct: residues 1-180, N-terminal GST fusion (pCold GST) kept, E. coli, glutathione-Sepharose purified
T3 sequence (Q15382 1-180): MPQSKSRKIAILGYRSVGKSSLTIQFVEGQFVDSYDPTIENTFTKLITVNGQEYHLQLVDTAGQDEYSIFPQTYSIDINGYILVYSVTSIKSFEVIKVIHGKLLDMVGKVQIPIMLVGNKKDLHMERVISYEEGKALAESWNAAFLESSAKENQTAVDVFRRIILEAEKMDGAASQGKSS

HRAS = target: T4, HRAS (Homo sapiens, UniProt P01112); assay: IP-RP-HPLC of nucleotide co-purified with Flag protein from HeLa; format: cell-based; conditions: nucleotide loaded in cells; 5 mM then 1 mM MgCl2 washes
T4 construct: Flag-tagged, dox-inducible in HeLa, anti-Flag immunopurified
T4 sequence (P01112 2-186): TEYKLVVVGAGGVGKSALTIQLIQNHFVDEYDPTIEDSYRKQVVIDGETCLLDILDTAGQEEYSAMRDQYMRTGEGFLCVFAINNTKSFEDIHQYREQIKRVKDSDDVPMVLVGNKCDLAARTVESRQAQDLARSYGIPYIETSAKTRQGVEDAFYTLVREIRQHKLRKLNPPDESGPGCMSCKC

Flag-RHEB [2] = target: T5, Flag-RHEB (Homo sapiens, UniProt Q15382); assay: as above; format: cell-based; conditions: nucleotide loaded in cells; 5 mM then 1 mM MgCl2 washes
T5 construct: Flag-tagged, dox-inducible in HeLa, anti-Flag immunopurified
T5 sequence (Q15382 1-181): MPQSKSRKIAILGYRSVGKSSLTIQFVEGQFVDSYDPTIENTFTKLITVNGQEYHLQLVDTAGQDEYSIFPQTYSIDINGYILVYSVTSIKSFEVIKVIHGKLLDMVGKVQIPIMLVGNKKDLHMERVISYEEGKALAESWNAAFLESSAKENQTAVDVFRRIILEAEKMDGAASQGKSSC

GST-RHEB [3] = target: T6, GST-RHEB (Homo sapiens, UniProt Q15382, P37L); assay: [3H]GDP-dissociation assay, filter binding; conditions: labelled compound; 5 μM [3H]GDP preload with 10 mM EDTA, chase 200 μM GTPγS; 5 mM MgCl2, pH 7.5, 30 °C
T6 construct: residues 1-180, N-terminal GST fusion (pCold GST) kept, E. coli, glutathione-Sepharose purified
T6 sequence (Q15382 1-180 P37L): as the sequence (Q15382 1-180) above, with P37L counted along it

Flag-RHEB [4] = target: T7, Flag-RHEB (Homo sapiens, UniProt Q15382, S68P); assay: IP-RP-HPLC of nucleotide co-purified with Flag protein from HeLa; format: cell-based; conditions: nucleotide loaded in cells; 5 mM then 1 mM MgCl2 washes
T7 construct: Flag-tagged, dox-inducible in HeLa, anti-Flag immunopurified
T7 sequence (Q15382 1-181 S68P): as the sequence (Q15382 1-181) above, with S68P counted along it

GST-RHEB [5] = target: T8, GST-RHEB (Homo sapiens, UniProt Q15382, S68P); assay: single-turnover GTPase assay of bound GTP by IP-RP-HPLC; format: biochemical; conditions: Flag-TSC1/2 beads (GAP); 5 mM MgCl2, pH 7.5, 30 °C
T8 construct: residues 1-180, N-terminal GST fusion (pCold GST) kept, E. coli, glutathione-Sepharose purified
T8 sequence (Q15382 1-180 S68P): as the sequence (Q15382 1-180) above, with S68P counted along it

Flag-RHEB [6] = target: T9, Flag-RHEB (Homo sapiens, UniProt Q15382, P37L); assay: IP-RP-HPLC of nucleotide co-purified with Flag protein from HeLa; format: cell-based; conditions: nucleotide loaded in cells; 5 mM then 1 mM MgCl2 washes
T9 construct: Flag-tagged, dox-inducible in HeLa, anti-Flag immunopurified
T9 sequence (Q15382 1-181 P37L): as the sequence (Q15382 1-181) above, with P37L counted along it

Flag-RHEB [7] = target: T10, Flag-RHEB (Homo sapiens, UniProt Q15382, Q64L); assay: as above; format: cell-based; conditions: nucleotide loaded in cells; 5 mM then 1 mM MgCl2 washes
T10 construct: Flag-tagged, dox-inducible in HeLa, anti-Flag immunopurified
T10 sequence (Q15382 1-181 Q64L): as the sequence (Q15382 1-181) above, with Q64L counted along it

GST-RHEB [8] = target: T3, GST-RHEB; assay: […]GTPγS filter binding time course; conditions: labelled compound; 5 μM [35S]GTPγS, 5 mM MgCl2, pH 7.5, 30 °C

Row | Structure (SMILES) | IP-RP-HPLC of nucleotide co-purified with Flag protein from HeLa (DIRAS2) | IP-RP-HPLC of nucleotide co-purified with Flag protein from HeLa (DIRAS1) | [3H]GDP-dissociation assay, filter binding (GST-RHEB [1]) | IP-RP-HPLC of nucleotide co-purified with Flag protein from HeLa (HRAS) | IP-RP-HPLC of nucleotide co-purified with Flag protein from HeLa (Flag-RHEB [2]) | [3H]GDP-dissociation assay, filter binding (GST-RHEB [3]) | IP-RP-HPLC of nucleotide co-purified with Flag protein from HeLa (Flag-RHEB [4]) | single-turnover GTPase assay of bound GTP by IP-RP-HPLC (GST-RHEB [5]) | IP-RP-HPLC of nucleotide co-purified with Flag protein from HeLa (Flag-RHEB [6]) | IP-RP-HPLC of nucleotide co-purified with Flag protein from HeLa (Flag-RHEB [7]) | [35S]GTPγS filter binding time course (GST-RHEB [8])
1 | Nc1nc2c(ncn2[C@@H]2O[C@H](COP(=O)(O)OP(=O)(O)O)[C@@H](O)[C@H]2O)c(=O)[nH]1 [GDP] | We could reproducibly quantify the amount of GDP and GTP bound to each small GTPase | We could reproducibly quantify the amount of GDP and GTP bound to each small GTPase | the dissociation rates of the WT and P37L proteins were comparable | We could reproducibly quantify the amount of GDP and GTP bound to each small GTPase | Representative chromatogram of guanine nucleotides bound to Flag-RHEB/WT in HeLa cells | the dissociation rates of the WT and P37L proteins were comparable | – | – | – | – | –
2 | Nc1nc2c(ncn2[C@@H]2O[C@H](COP(=O)(O)OP(=O)(O)OP(=O)(O)O)[C@@H](O)[C@H]2O)c(=O)[nH]1 [GTP] | We could reproducibly quantify the amount of GDP and GTP bound to each small GTPase | We could reproducibly quantify the amount of GDP and GTP bound to each small GTPase | – | We could reproducibly quantify the amount of GDP and GTP bound to each small GTPase | – | – | both RHEB/P37L and RHEB/S68P showed increases in their GTP-bound forms | it weakly but significantly promoted that of GST-RHEB/S68P | both RHEB/P37L and RHEB/S68P showed increases in their GTP-bound forms | marked increase in the ratio of the GTP-bound form of RHEB/Q64L compared with RHEB/WT | –
3 | Nc1nc2c(ncn2[C@@H]2O[C@H](COP(=O)(O)OP(=O)(O)OP(O)(O)=S)[C@@H](O)[C@H]2O)c(=O)[nH]1 [GTPγS] | – | – | – | – | – | – | – | – | – | – | GTPγS-binding rate of RHEB/S68P was enhanced compared with that of RHEB/WT and RHEB/P37L
